Measurements taken from US9113629B2, “4-amino-6-(4-substituted-phenyl)-picolinates and 6-amino-2-(4-substituted-phenyl)-pyrimidine-4-carboxylates and their use as herbicides” (DOW AGROSCIENCES LLC, priority 2013, dated 2015).

Legend:
[1] = tested on: MATSS: scented mayweed (Matricaria chamomilla), pineappleweed (Matricaria matricarioides); assay: Post-emergent Test III, herbicidal activity in wheat and barley; type: in vivo
Outline: (§1)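 Plants at the second to third true-leaf stage, grown in a greenhouse at about 18/17 °C with a 14 h photoperiod, were sprayed post-emergence at 187 L/ha with the high rate and ½× to 1/16× serial dilutions in an acetone/DMSO/crop-oil/surfactant carrier. Injury was rated visually at 21 d on a 0–100% scale, and GR20–GR90 were derived by probit analysis.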

[2] = as above; type: in vivo, Lolium multiflorum, Lolium rigidum; settings: Lolium multiflorum, post-emergence, 504 h, read-out: Visual Growth Reduction (%) 21 Days After Application LOLSS
Outline: as §1

[3] = tested on: HORSS: barley, including spring and winter (Hordeum vulgare); assay: as above; type: in vivo
Outline: as §1

[4] = tested on: APESV: bentgrass (Apera spica-venti); assay: as above; type: in vivo
Outline: as §1

[5] = tested on: VERPE: bird's-eye speedwell (veronica persica); assay: as above; type: in vivo
Outline: as §1

[6] = tested on: KCHSC: kochia (Kochia scoparia); assay: as above; type: in vivo
Outline: as §1

[7] = tested on: TRZSS: wheat, including spring and winter (Triticum aestivum); assay: as above; type: in vivo
Outline: as §1

[8] = tested on: SETVI: green foxtail (Setaria viridis); assay: as above; type: in vivo
Outline: as §1

[9] = probit analysis, dose for growth reduction of 50 percent, 21 days after application
[10] = probit analysis, dose for growth reduction of 80 percent, 21 days after application
[11] = probit analysis, dose for growth reduction of 20 percent, 21 days after application, crop

SMILES: Nc1c(F)c(-c2ccc(Cl)c(F)c2)nc(C(=O)O)c1Cl [Compound 217]
- pest or weed control at 35 g/ha ([1]; Matricaria chamomilla, post-emergence, 504 h, 35 g ai/ha, read-out: Visual Growth Reduction (%) 21 Days After Application MATSS): 85 to 94%
- pest or weed control at 70 g/ha ([1]; Matricaria chamomilla, post-emergence, 504 h, 70 g ai/ha, read-out: Visual Growth Reduction (%) 21 Days After Application MATSS): 85 to 94%
- pest or weed control at 140 g/ha ([1]; Matricaria chamomilla, post-emergence, 504 h, 140 g ai/ha, read-out: Visual Growth Reduction (%) 21 Days After Application MATSS): 85 to 94%
- GR50 MATSS [1, 9]: 34 g ai/ha
- GR80 MATSS [1, 10]: >140 g ai/ha
- pest or weed control at 35 g/ha ([2]; 35 g ai/ha): 45 to 59%
- pest or weed control at 70 g/ha ([2]; 70 g ai/ha): 60 to 74%
- pest or weed control at 140 g/ha ([2]; 140 g ai/ha): 60 to 74%
- pest or weed control at 35 g/ha ([3]; Hordeum vulgare, post-emergence, 504 h, 35 g ai/ha, read-out: Visual Growth Reduction (%) 21 Days After Application HORSS): 75 to 84%
- pest or weed control at 70 g/ha ([3]; Hordeum vulgare, post-emergence, 504 h, 70 g ai/ha, read-out: Visual Growth Reduction (%) 21 Days After Application HORSS): 75 to 84%
- pest or weed control at 140 g/ha ([3]; Hordeum vulgare, post-emergence, 504 h, 140 g ai/ha, read-out: Visual Growth Reduction (%) 21 Days After Application HORSS): 75 to 84%
- GR20 HORSS [3, 11]: 7 g ai/ha
- pest or weed control at 35 g/ha ([4]; Apera spica-venti, post-emergence, 504 h, 35 g ai/ha, read-out: Visual Growth Reduction (%) 21 Days After Application APESV): 85 to 94%
- pest or weed control at 70 g/ha ([4]; Apera spica-venti, post-emergence, 504 h, 70 g ai/ha, read-out: Visual Growth Reduction (%) 21 Days After Application APESV): 85 to 94%
- pest or weed control at 140 g/ha ([4]; Apera spica-venti, post-emergence, 504 h, 140 g ai/ha, read-out: Visual Growth Reduction (%) 21 Days After Application APESV): 95 to 100%
- GR50 APESV [4, 9]: 6 g ai/ha
- GR80 APESV [4, 10]: 15 g ai/ha
- pest or weed control at 35 g/ha ([5]; Veronica persica, post-emergence, 504 h, 35 g ai/ha, read-out: Visual Growth Reduction (%) 21 Days After Application VERPE): 60 to 74%
- pest or weed control at 70 g/ha ([5]; Veronica persica, post-emergence, 504 h, 70 g ai/ha, read-out: Visual Growth Reduction (%) 21 Days After Application VERPE): 60 to 74%
- pest or weed control at 140 g/ha ([5]; Veronica persica, post-emergence, 504 h, 140 g ai/ha, read-out: Visual Growth Reduction (%) 21 Days After Application VERPE): 60 to 74%
- GR50 VERPE [5, 9]: 19 g ai/ha
- GR80 VERPE [5, 10]: 73 g ai/ha
- pest or weed control at 35 g/ha ([6]; Bassia scoparia, post-emergence, 504 h, 35 g ai/ha, read-out: Visual Growth Reduction (%) 21 Days After Application KCHSC): 85 to 94%
- pest or weed control at 70 g/ha ([6]; Bassia scoparia, post-emergence, 504 h, 70 g ai/ha, read-out: Visual Growth Reduction (%) 21 Days After Application KCHSC): 95 to 100%
- pest or weed control at 140 g/ha ([6]; Bassia scoparia, post-emergence, 504 h, 140 g ai/ha, read-out: Visual Growth Reduction (%) 21 Days After Application KCHSC): 95 to 100%
- GR50 KCHSC [6, 9]: 2 g ai/ha
- GR80 KCHSC [6, 10]: 6 g ai/ha
- pest or weed control at 35 g/ha ([7]; Triticum aestivum, post-emergence, 504 h, 35 g ai/ha, read-out: Visual Growth Reduction (%) 21 Days After Application TRZSS): 75 to 84%
- pest or weed control at 70 g/ha ([7]; Triticum aestivum, post-emergence, 504 h, 70 g ai/ha, read-out: Visual Growth Reduction (%) 21 Days After Application TRZSS): 75 to 84%
- pest or weed control at 140 g/ha ([7]; Triticum aestivum, post-emergence, 504 h, 140 g ai/ha, read-out: Visual Growth Reduction (%) 21 Days After Application TRZSS): 85 to 94%
- GR20 TRZSS [7, 11]: 2 g ai/ha
- pest or weed control at 35 g/ha ([8]; Setaria viridis, post-emergence, 504 h, 35 g ai/ha, read-out: Visual Growth Reduction (%) 21 Days After Application SETVI): 75 to 84%
- pest or weed control at 70 g/ha ([8]; Setaria viridis, post-emergence, 504 h, 70 g ai/ha, read-out: Visual Growth Reduction (%) 21 Days After Application SETVI): 75 to 84%
- pest or weed control at 140 g/ha ([8]; Setaria viridis, post-emergence, 504 h, 140 g ai/ha, read-out: Visual Growth Reduction (%) 21 Days After Application SETVI): 75 to 84%
- GR50 SETVI [8, 9]: 46 g ai/ha
- GR80 SETVI [8, 10]: >140 g ai/ha
